Results on two molecules are retold here after US8329863B2, “Gonadotropin releasing hormone antagonists” (Oakwood Laboratories, LLC, priority 2004, dated 2012).

Read-outs that look alike come from different tables or passages of the source. Square brackets hold non-standard residues; d marks the D form. Peptide text beside a SMILES is read from it. * marks the point of attachment. dPhe(4-Cl) = N[C@H](Cc1ccc(Cl)cc1)C(=O)O; Nicotinoyl(6-NH2) = Nc1ccc(C(=O)*)cn1; d1Nal = N[C@H](Cc1cccc2ccccc12)C(=O)O; Lys(iPr) = CC(C)NCCCC[C@H](N)C(=O)O; d3Pal = N[C@H](Cc1cccnc1)C(=O)O; Picolinoyl = O=C(c1ccccn1)*; dOrn = NCCC[C@@H](N)C(=O)O

A short description of data set [1]: Water solubility at room temperature. It is filed as physicochemical. The procedure: Solubility of the novel GnRH antagonist was compared with that of orntide acetate at room temperature. In this experiment, 50 mg of the novel GnRH antagonist was weighed into a small glass container and 2 mL of purified water was added to it. […] An additional 3 mL of water was added, the solution mixed, and the pH was determined: 5.4. The same procedure was used to test the solubility of orntide acetate (known in the art as ornirelix).
Separately, another 50 mg aliquot was weighed out and 1 ml of water was added. This also dissolved. This is 50 mg/mL in concentration, which is 10 times what is possible to dissolve with orntide acetate.

A further data set concerns testosterone. The data set is described as follows: Testosterone suppression in vivo in the standard experimental rat model. Also noted: species or system male Sprague Dawley rats. Conditions: subcutaneous. Here is the method:
Briefly, male Sprague Dawley rats weighing approximately 300 g were purchased from Harlan (Indianapolis, Ind.) and used immediately after the quarantine period required by a University of Kentucky Animal Research Facility approved protocol.
The evaluation was conducted in two groups of rats. Group 1 included 6 rats to be administered with the novel GnRH antagonist. The other group was a control group consisting of 2 rats. The novel GnRH antagonist was administered subcutaneously (scapulae). Blood samples (1 mL) for testosterone level determinations were collected from the tail vein at 0, 1, 3, 6, 12, 24, and 48 hours. Serum was extracted by centrifugation at 2000 rpm for 15 min and stored at −20 C until determination of testosterone/LH levels. Rat plasma testosterone was determined using Active™ Testosterone RIA DSL-4000 kits purchased from Diagnostic Systems, Inc. Webster, Tex. To effect a sufficient washout period the doses were administered at weekly intervals.
A total of six rats were used for each dose tested. In the first week, each rat received a single dose of 15 μg. In the second week, the dose increased to 30 μg. Next, in the third week, each rat received a single dose of 60 μg. Table 2 is the control rat group with a total of 2 rats that received only vehicle.

In general, solubility refers to the concentration that dissolves in the medium under given conditions.

For the molecule `CC(=O)N[C@H](Cc1cccc2ccccc12)C(=O)N[C@H](Cc1ccc(Cl)cc1)C(=O)N[C@H](Cc1cccnc1)C(=O)N[C@@H](CO)C(=O)N[C@@H](CCCCNC(=O)c1ccccn1)C(=O)N[C@H](CCCNC(=O)c1ccc(N)nc1)C(=O)N[C@@H](CC(C)C)C(=O)N[C@@H](CCCCNC(C)C)C(=O)N1CCC[C@H]1C(=O)N[C@H](C)C(N)=O` [orntide acetate, DNal^1, DpCIPhe^2, D3Pal^3 Ser^4, PicLys^5, D(6ANic)Orn^6, Leu^7, IprLys^8, Pro^9, DAla^10-NH2] (Ac-[d1Nal][dPhe(4-Cl)][d3Pal]SK(Picolinoyl)[dOrn](Nicotinoyl(6-NH2))L[Lys(iPr)]P[dA]-NH2; N-terminus and C-terminus assumed), the solubility in data set [1] (aqueous media, even at a pH lower than 5, read-out: solubility in aqueous media) is less than 5000 µg/mL; in data set [1] (water, pH 5, at a pH of 5, read-out: water solubility), less than 5000 µg/mL. Besides, in data set [1] (at concentrations less than 5 mg/mL), the “gelling in aqueous media” value was “tends to gel even at that low concentration”.
For the molecule “AcDNal^1, DpCIPhe^2, D3Pal^3 Ser^4, NicLys^5, D(6ANic)Orn^6, Leu^7, IprLys^8, Pro^9, DAla^10NH2 [novel GnRH antagonist]”, in data set [1] (50 mg in 2 mL purified water, relatively gentle mixing, room temperature), the time to dissolve entry is “less than 30 seconds”. Moreover, in data set [1] (50 mg in 5 mL water (10 mg/mL)), the “pH of the solution” value was 5.4. Also, the “testosterone level reached after the castration period” value with testosterone (15 μg/rat, after about 12 hours) turned out to be 1.5 ng/mL. In addition, the “duration of chemical castration of testosterone (≦0.5 ng/ml)” value in the data set on testosterone (15 μg/rat, single dose) is listed as “about 12 hours”. Further, the “serum testosterone level at 6 hours” value with testosterone (15 μg/rat, single dose, week 1, mean of 6 rats) worked out at 0.2 ng/mL. Further, the “testosterone level by 24 hours” value in the data set with testosterone (30 μg/rat, single dose) is “greater than 0.5 ng/mL”. The “duration of testosterone suppression” value with testosterone (30 μg/rat, single dose, week 2) is reported as “at least 12 hours”.
